{"source": "patent US20040014215A1", "about": "“Synchronised arabidopsis cell suspensions and uses thereof” (priority 2000, published 2004)", "key": {"CDK-a": {"system": "CDK-a", "test": "Northern expression analysis after aphidicolin synchronisation of MM1 (maximum signal = 100%)", "type": "cell-based, Arabidopsis thaliana", "description": "was analysed following the expression level of known cell cycle regulated genes. Synchronisation was performed as described in Example 2A, with the exception that two 7-day old cultures of the weekly sub-cultured cell suspension (210 ml each) were combined. 40 ml of combined culture was transferred into 200 ml of fresh MSS-medium in each of 10 separate flasks. After incubation for 24 hrs under conditions as described in Example 1, in the presence of 4.16 μg/ml aphidicolin, cells from 5 pooled flasks were washed through a nylon net (mesh size 47 μm) and washed with 2 litre MSS medium and shaken vigorously to remove the aphidicolin. Cells were transferred into a 50 ml plastic tube, washed again with MSS medium and centrifuged at 2500 rpm for 1 min (1075 rcf). Cells were resuspended and combined with the cells from the other 5 flasks similarly washed in a total volume of 300 ml fresh MSS-medium. 30 ml of this cell suspension was then added to 200 ml fresh MSS-medium in each of 10 separate flasks.\n1) 25 ml for Northern blot (transferred into 50 ml plastic tube, centrifuged at 2500 rpm for 1 min, the supernatant discarded, and the cell pellet shock-frozen in liquid nitrogen before storing in −80° C. freezer)\nSamples were collected at the time point indicated (time of removal of aphidicolin equals time point 0 hrs) and were analysed for expression of the following genes by Northern blot:\nCDK-a (also called Cdc2a/CDK2a: Accession no. ATCDC2AP)\nFor each probe the maximum hybridisation signal obtained was defined as 100%."}, "[1]": {"system": "Arabidopsis cell suspension culture", "conditions": "phosphate starvation 32 hours then aphidicolin, cited from earlier work"}, "[2]": {"conditions": "0 hrs after aphidicolin removal"}, "[3]": {"conditions": "2 hrs after aphidicolin removal"}, "[4]": {"conditions": "4 hrs after aphidicolin removal"}, "[5]": {"conditions": "6 hrs after aphidicolin removal"}, "[6]": {"conditions": "8 hrs after aphidicolin removal"}, "[7]": {"conditions": "10 hrs after aphidicolin removal"}, "[8]": {"conditions": "12 hrs after aphidicolin removal"}, "[9]": {"conditions": "14 hrs after aphidicolin removal"}, "[10]": {"conditions": "16 hrs after aphidicolin removal"}, "[11]": {"conditions": "18 hrs after aphidicolin removal"}, "[12]": {"conditions": "20 hrs after aphidicolin removal"}, "[13]": {"conditions": "22 hrs after aphidicolin removal"}, "[14]": {"conditions": "24 hrs after aphidicolin removal"}, "[15]": {"conditions": "26 hrs after aphidicolin removal"}, "[16]": {"conditions": "28 hrs after aphidicolin removal"}, "[17]": {"conditions": "30 hrs after aphidicolin removal"}}, "data": [{"smiles": "C[C@@]1(CO)[C@H](O)CC[C@@]2(C)[C@H]1CC[C@H]1C[C@@H]3C[C@@]12CC[C@]3(O)CO", "note": "[aphidicolin]", "values": [{"measurement": "CDK-a %", "setting": "CDK-a; [2]", "value": 17.71, "unit": "%"}, {"measurement": "CDK-a Band intensity", "setting": "CDK-a; [2]", "value": 321}, {"measurement": "CDK-a %", "setting": "CDK-a; [3]", "value": 37.87, "unit": "%"}, {"measurement": "CDK-a Band intensity", "setting": "CDK-a; [3]", "value": 687}, {"measurement": "CDK-a %", "setting": "CDK-a; [4]", "value": 45.09, "unit": "%"}, {"measurement": "CDK-a Band intensity", "setting": "CDK-a; [4]", "value": 818}, {"measurement": "CDK-a %", "setting": "CDK-a; [5]", "value": 66.22, "unit": "%"}, {"measurement": "CDK-a Band intensity", "setting": "CDK-a; [5]", "value": 1202}, {"measurement": "CDK-a %", "setting": "CDK-a; [6]", "value": 58.06, "unit": "%"}, {"measurement": "CDK-a Band intensity", "setting": "CDK-a; [6]", "value": 1054}, {"measurement": "CDK-a %", "setting": "CDK-a; [7]", "value": 77.44, "unit": "%"}, {"measurement": "CDK-a Band intensity", "setting": "CDK-a; [7]", "value": 1406}, {"measurement": "CDK-a %", "setting": "CDK-a; [8]", "value": 80.20, "unit": "%"}, {"measurement": "CDK-a Band intensity", "setting": "CDK-a; [8]", "value": 1456}, {"measurement": "CDK-a %", "setting": "CDK-a; [9]", "value": 92.43, "unit": "%"}, {"measurement": "CDK-a Band intensity", "setting": "CDK-a; [9]", "value": 1678}, {"measurement": "CDK-a %", "setting": "CDK-a; [10]", "value": 79.03, "unit": "%"}, {"measurement": "CDK-a Band intensity", "setting": "CDK-a; [10]", "value": 1435}, {"measurement": "CDK-a %", "setting": "CDK-a; [11]", "value": 100.0, "unit": "%"}, {"measurement": "CDK-a Band intensity", "setting": "CDK-a; [11]", "value": 1816}, {"measurement": "CDK-a %", "setting": "CDK-a; [12]", "value": 89.25, "unit": "%"}, {"measurement": "CDK-a Band intensity", "setting": "CDK-a; [12]", "value": 1620}, {"measurement": "CDK-a %", "setting": "CDK-a; [13]", "value": 53.55, "unit": "%"}, {"measurement": "CDK-a Band intensity", "setting": "CDK-a; [13]", "value": 972}, {"measurement": "CDK-a %", "setting": "CDK-a; [14]", "value": 34.25, "unit": "%"}, {"measurement": "CDK-a Band intensity", "setting": "CDK-a; [14]", "value": 621}, {"measurement": "CDK-a %", "setting": "CDK-a; [15]", "value": 40.96, "unit": "%"}, {"measurement": "CDK-a Band intensity", "setting": "CDK-a; [15]", "value": 743}, {"measurement": "CDK-a %", "setting": "CDK-a; [16]", "value": 36.32, "unit": "%"}, {"measurement": "CDK-a Band intensity", "setting": "CDK-a; [16]", "value": 659}, {"measurement": "CDK-a %", "setting": "CDK-a; [17]", "value": 29.30, "unit": "%"}, {"measurement": "CDK-a Band intensity", "setting": "CDK-a; [17]", "value": 532}, {"measurement": "cells in S-phase", "setting": "[1]; 2 h after release of block", "value": "50 to 60", "unit": "%"}, {"measurement": "cells in G2 phase", "setting": "[1]; after 8 h", "value": 50, "unit": "%"}]}]}
